In US20040235919A1, “Phenylacetamido-thiazole derivatives, process for the preparation and their use as antitumor agents” (priority 2001, published 2004) one finds IC50 data, which are given here for two molecules.

This experiment addresses cdk2/cyclin A (Homo sapiens, UniProt P24941). Put plainly: Inhibition assay of cdk2/Cyclin A activity (SPA). Type of experiment: biochemical. The conditions noted are these: tested against cdk2/cyclin A; read-out: inhibitory activity, expressed as IC50. An excerpt:
When the number of compounds to be tested became consistent, the need for a fast and homogeneous screening assay was raised. Thus a method of assay based on the use of the SPA technology (Amersham Pharmacia Biotech) was set up. The assay consists of the transfer of radioactivity labelled phosphate moiety by the kinase to a biotinylated substrate. The resulting 33P-labelled biotinylated product is allowed to bind to streptavidin-coated SPA beads (biotin capacity 130 pmol/mg), and light emitted was measured in a scintillation counter.
Inhibition Assay of cdk2/Cyclin A Activity
Kinase reaction: 4 microM in house biotinylated histone H1 (Sigma # H-5505) substrate, 10 microM ATP (0.1 microCi P^33gamma-ATP), 4.2 ng cdk2/Cyclin A complex, inhibitor in a final volume of 30 microl buffer (TRIS HCl 10 mM pH 7.5, MgCl2 10 mM, DTT 7.5 mM+0.2 mg/ml BSA) were added to each well of a 96 U bottom. […]
After 20 min. incubation for substrate capture, 100 microl 5M CsCl were added to allow statification of beads to the top of the plate and let stand 4 hours before radioactivity counting in the Top-Count instrument
IC50 determination: inhibitors were tested at different concentrations ranging from 0.0015 to 10 microM. Experimental data were analyzed by the computer program GraphPad Prizm using the four parameter logistic equation: […]

By IC50 is commonly meant the concentration needed to halve the response being measured.

In the case of `CC(=O)Nc1ccc([C@H](C)C(=O)Nc2ncc(C(C)C)s2)cc1` [(2S)-2-[4-(acetylamino)phenyl]-N-(5-isopropyl-1,3-thiazol-2-yl)propanamide], the IC50 was 11 nM.

`CC(=O)Nc1ccc(CC(=O)Nc2ncc(C(C)C)s2)cc1` [N-(5-isopropyl-1,3-thiazol-2-yl)-2-[4-(acetylamino)phenyl]acetamide]: the IC50 was 110 nM.
